The text below walks through data of patent US7323468B2, “Pyridopyrazines and the use thereof as kinase inhibitors” (AEterna Zentaris GmbH, priority 2003, dated 2008).

Molecules are shown by their SMILES.

The subject of data set [1] is Raf-Mek-Erk cascade (GST-c-Raf-DD, GST-Mek1, His-Erk2). The data set can be described thus: Raf-Mek-Erk ELISA (cell-free reconstituted cascade, Erk phosphorylation). In kind it is biochemical, human. As to conditions: inhibition of Erk phosphorylation, 1 mM ATP, 10 concentrations 31.6 pM-100 μM. Here is the method: The inhibitory effect on the following human serine/threonine and tyrosine kinases of the compounds of the invention was tested in conventional kinase assays: PKB/Akt1, c-Raf, B-Raf, Mek, PDGFRbeta, Flt-3, c-Kit, c-Ab1, KDR, FGFR1 and IGF1R. Both the full-length kinases and truncated fragments—but at least the cytoplasmic, constitutively active kinase domains—were employed. The kinases were prepared as recombinant fusion proteins with GST (glutathion S-transferase) or HIS Tag in Sf9 cell culture. Depending on the substrate type, the various kinase reactions were carried out in sandwich ELISA formates or by means of a simple substrate adsorption assay on 96-well Flashplates (Perkin Elmer).
The testing on substances on the Raf-Mek-Erk cascade is described in detail below. Selected test results for the Raf and Mek inhibitors are then listed.
Procedure: Raf-Mek-Erk ELISA
Potential inhibitors were firstly investigated at a concentration of 20 μg/ml in initial single-dose determinations on 96-well microtiter plates (MTPs). Substances with >70% inhibition were employed for dose-response studies.
Reconstitution of the Raf-Mek-Erk cascade was quantified with the aid of a cell-free ELISA.
A typical kinase assay was carried out in a final volume of 50 μl with in each case 20-150 ng of Raf, Mek, Erk kinase protein, 1 mM ATP, 10 mM MgCl2, 150 mM NaCl, 25 mM beta-glycerophosphate, 25 mM Hepes pH 7.5. Before the kinase reaction, the test substances were each preincubated singly with each of the three kinase proteins at room temperature for 30 minutes. For the kinase reaction, the kinases preincubated with test substance were combined and incubated at 26° C. for 30 minutes. The reaction was stopped by a final concentration of 2% SDS and 10 minutes at 50° C. in a heating block.
For the immunodetection, the reaction mixtures were transferred to 96-well MTPs coated with anti-Erk Ab(K-23, Santa Cruz Biotechnology, incubated at room temperature for 60 minutes and washed 3× with TBST. Anti-phospho-Erk Ab (#9106, New England Biolabs) 1:500 in 50 μl of TBST/1% BSA, was added and incubated at 4° C. overnight. After the MTPs had been washed 3× with TBST, secondary anti-mouse IgG^POD conjugate (#NA931, Pharmacia) 1:2500 was added, incubated at room temperature for 1 h and again washed 3× with TBST. For colorimetric detection of the kinase reaction, 50 μl of OPD (o-phenyldiamine dihydrochloride) chromogen buffer were pipetted into each of the wells and incubated at 37° C. for 30 minutes. The colour reaction was then determined in an ELISA reader at 492 nm.
The experimental determination of dose-response plots took place using the same experimental design with 10 semilogarithmically graded concentrations from 31.6 pM-100 μM. The IC50 values were calculated in GraphPadPrism.
(In general: ELISA stands for enzyme-linked immunosorbent assay.)

On to `C=C(C)CNC(=S)Nc1ccc2ncc(-c3ccc4ccccc4c3)nc2n1` [Example 6, 1-(2-Methylallyl)-3-(3-naphthalen-2-ylpyrido[2,3-b]pyrazin-6-yl)thiourea], for which the melting point (as a rule, the temperature, or range, at which the solid turns liquid) is 239 to 240 °C (dec.).
`O=[N+]([O-])c1ccc(NC(=S)Nc2ccc3ncc(-c4ccc5ccccc5c4)nc3n2)cc1` [Example 8, 1-(3-Naphthalen-2-ylpyrido[2,3-b]pyrazin-6-yl)-3-(4-nitrophenyl)thiourea]: the IC50 – broadly, the concentration that inhibits the measured activity by half – in data set [1] is over 100 µM.
As to `COc1ccc(-c2cnc3ccc(NC(=S)Nc4ccc([N+](=O)[O-])cc4)nc3n2)cc1` [Example 9, 1-[3-(4-Methoxyphenyl)pyrido[2,3-b]pyrazin-6-yl]-3-(4-nitrophenyl)thiourea], in data set [1], the IC50 was over 100 µM.
The same measure, in the same setting: in the case of `CC(C)(C)NC(=S)Nc1ccc2ncc(-c3ccccc3)nc2n1` [Example 10, 1-tert-Butyl-3-(3-phenylpyrido[2,3-b]pyrazin-6-yl)thiourea] it was over 100 µM; in that of `S=C(NCc1ccccc1)Nc1ccc2ncc(-c3ccccc3)nc2n1` [Example 13, 1-Benzyl-3-(3-phenylpyrido[2,3-b]pyrazin-6-yl)thiourea], over 100 µM; in that of `Cc1ccc(NC(=O)Nc2ccc3ncc(-c4ccccc4)nc3n2)cc1` [Example 15, 1-(3-Phenylpyrido[2,3-b]pyrazin-6-yl)-3-p-tolylurea], over 100 µM.
The same measure, in the same setting: in the case of `O=C(Nc1ccc(Cl)c(C(F)(F)F)c1)Nc1ccc2ncc(-c3ccccc3)nc2n1` [Example 16, 1-(4-Chloro-3-trifluoromethylphenyl)-3-(3-phenylpyrido[2,3-b]pyrazin-6-yl)urea] it was over 100 µM.
